{"source": "ChEMBL document CHEMBL4371076", "about": "(J Med Chem, 2019)", "key": {"Cytochrome P450 2D6 [1]": {"target": "T1, Cytochrome P450 2D6 (Homo sapiens, UniProt P10635)", "T1 sequence (P10635 whole entry)": "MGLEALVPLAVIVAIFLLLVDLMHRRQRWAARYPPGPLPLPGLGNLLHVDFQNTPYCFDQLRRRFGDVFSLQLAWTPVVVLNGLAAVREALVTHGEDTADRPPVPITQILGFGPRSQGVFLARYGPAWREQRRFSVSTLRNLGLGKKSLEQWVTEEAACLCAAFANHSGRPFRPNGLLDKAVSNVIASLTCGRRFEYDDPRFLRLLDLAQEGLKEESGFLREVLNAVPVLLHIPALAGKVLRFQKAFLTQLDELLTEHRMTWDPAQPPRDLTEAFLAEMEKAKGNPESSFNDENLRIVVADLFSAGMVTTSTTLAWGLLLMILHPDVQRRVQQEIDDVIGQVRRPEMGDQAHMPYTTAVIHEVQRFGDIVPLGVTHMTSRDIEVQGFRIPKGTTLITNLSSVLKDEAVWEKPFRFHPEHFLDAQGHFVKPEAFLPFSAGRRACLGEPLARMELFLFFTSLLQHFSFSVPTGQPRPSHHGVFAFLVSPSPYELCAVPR", "assay": "Time-dependant inhibition of CYP2D6 in human liver microsomes", "format": "ADME"}, "[2]": {"assay": "Toxicity in CD1 mouse model of formalin-induced nociception assessed as hypothermia at 30 mg/kg, po", "format": "organism-based", "conditions": "in vivo"}, "Cytochrome P450 2C9 [3]": {"target": "T2, Cytochrome P450 2C9 (Homo sapiens, UniProt P11712)", "T2 sequence (P11712 whole entry)": "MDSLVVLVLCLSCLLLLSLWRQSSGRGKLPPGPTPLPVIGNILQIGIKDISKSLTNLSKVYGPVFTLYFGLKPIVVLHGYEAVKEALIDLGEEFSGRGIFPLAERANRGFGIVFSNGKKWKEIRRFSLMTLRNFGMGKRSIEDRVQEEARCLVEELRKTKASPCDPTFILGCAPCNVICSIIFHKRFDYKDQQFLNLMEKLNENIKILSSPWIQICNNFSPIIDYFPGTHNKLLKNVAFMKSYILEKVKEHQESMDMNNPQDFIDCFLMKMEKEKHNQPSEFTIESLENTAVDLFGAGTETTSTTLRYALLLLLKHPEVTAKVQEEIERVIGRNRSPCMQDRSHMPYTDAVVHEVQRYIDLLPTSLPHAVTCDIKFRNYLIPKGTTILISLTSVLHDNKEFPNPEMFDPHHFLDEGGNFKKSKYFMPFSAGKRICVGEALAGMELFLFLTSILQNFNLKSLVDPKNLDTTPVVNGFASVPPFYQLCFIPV", "assay": "Inhibition of CYP2C9 in human liver microsomes", "format": "ADME", "conditions": "human, microsomes"}, "Cytochrome P450 3A4 [4]": {"target": "T3, Cytochrome P450 3A4 (Homo sapiens, UniProt P08684)", "T3 sequence (P08684 whole entry)": "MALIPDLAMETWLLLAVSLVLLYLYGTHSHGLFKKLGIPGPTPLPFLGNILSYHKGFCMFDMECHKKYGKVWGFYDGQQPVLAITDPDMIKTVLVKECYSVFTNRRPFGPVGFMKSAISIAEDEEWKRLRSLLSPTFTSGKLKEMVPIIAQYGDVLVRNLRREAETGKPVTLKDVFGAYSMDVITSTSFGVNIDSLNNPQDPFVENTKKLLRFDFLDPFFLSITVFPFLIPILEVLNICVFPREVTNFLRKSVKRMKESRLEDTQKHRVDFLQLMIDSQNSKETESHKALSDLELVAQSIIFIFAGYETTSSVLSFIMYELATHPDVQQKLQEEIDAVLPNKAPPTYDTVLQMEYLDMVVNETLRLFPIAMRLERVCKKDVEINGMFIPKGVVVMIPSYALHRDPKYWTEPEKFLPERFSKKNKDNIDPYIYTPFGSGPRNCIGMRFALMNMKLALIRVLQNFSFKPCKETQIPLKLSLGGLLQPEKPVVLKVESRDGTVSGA", "assay": "Inhibition of CYP3A4 in human liver microsomes", "format": "ADME", "conditions": "human, microsomes"}, "[5]": {"assay": "Metabolic stability in rat liver microsomes assessed as parent compound remaining at 0.5 uM after 10 mins", "format": "ADME, Microsome", "conditions": "read-out: Stability"}, "Cytochrome P450 3A4 [6]": {"target": "T3, Cytochrome P450 3A4", "assay": "Time-dependant inhibition of CYP3A4 in human liver microsomes", "format": "ADME"}, "[7]": {"assay": "Unbound plasma concentration in CD1 mouse model of formalin-induced nociception at 3 mg/kg, po", "format": "ADME, organism-based", "conditions": "in vivo"}, "[8]": {"assay": "Toxicity in CD1 mouse model of formalin-induced nociception assessed as prostration or sedation at 30 mg/kg, po", "format": "organism-based", "conditions": "in vivo"}, "[9]": {"assay": "Metabolic stability in human liver microsomes assessed as parent compound remaining at 0.5 uM after 10 mins", "format": "ADME, Microsome", "conditions": "read-out: Stability"}, "Cytochrome P450 2B6 [10]": {"target": "T4, Cytochrome P450 2B6 (Homo sapiens, UniProt P20813)", "T4 sequence (P20813 whole entry)": "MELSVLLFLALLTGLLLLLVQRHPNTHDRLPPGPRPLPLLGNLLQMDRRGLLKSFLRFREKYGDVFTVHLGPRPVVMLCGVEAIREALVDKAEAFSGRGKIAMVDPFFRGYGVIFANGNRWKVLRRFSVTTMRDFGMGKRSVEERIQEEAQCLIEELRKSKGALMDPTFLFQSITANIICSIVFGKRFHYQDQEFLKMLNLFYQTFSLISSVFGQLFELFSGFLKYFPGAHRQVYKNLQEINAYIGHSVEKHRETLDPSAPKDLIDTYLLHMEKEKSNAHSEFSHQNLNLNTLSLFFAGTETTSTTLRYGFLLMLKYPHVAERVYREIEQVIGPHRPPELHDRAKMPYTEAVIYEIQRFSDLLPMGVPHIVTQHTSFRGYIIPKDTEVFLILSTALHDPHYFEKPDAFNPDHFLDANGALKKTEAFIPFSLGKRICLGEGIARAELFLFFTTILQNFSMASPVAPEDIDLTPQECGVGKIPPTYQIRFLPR", "assay": "Inhibition of CYP2B6 in human liver microsomes", "format": "ADME", "conditions": "human, microsomes"}, "Cytochrome P450 2C9 [11]": {"target": "T2, Cytochrome P450 2C9", "assay": "Time-dependant inhibition of CYP2C9 in human liver microsomes", "format": "ADME"}, "[12]": {"assay": "Fraction unbound in mouse plasma", "format": "ADME, cell-free"}, "Mus musculus [13]": {"test_system": "Mus musculus", "assay": "Analgesic activity in CD1 mouse model of formalin-induced nociception assessed as reduction in formalin-evoked paw flinching/licking response during first phase at 30 mg/kg, po pretreated for 30 mins followed by formalin treatment and measured during first 5 mins post formalin injection", "format": "functional, organism-based"}, "Cytochrome P450 2B6 [14]": {"target": "T4, Cytochrome P450 2B6", "assay": "Time-dependant inhibition of CYP2B6 in human liver microsomes", "format": "ADME"}, "[15]": {"assay": "Permeability of the compound at pH 5.5 by PAMPA", "format": "ADME", "conditions": "read-out: permeability"}, "Cytochrome P450 2C19 [16]": {"target": "T5, Cytochrome P450 2C19 (Homo sapiens, UniProt P33261)", "T5 sequence (P33261 whole entry)": "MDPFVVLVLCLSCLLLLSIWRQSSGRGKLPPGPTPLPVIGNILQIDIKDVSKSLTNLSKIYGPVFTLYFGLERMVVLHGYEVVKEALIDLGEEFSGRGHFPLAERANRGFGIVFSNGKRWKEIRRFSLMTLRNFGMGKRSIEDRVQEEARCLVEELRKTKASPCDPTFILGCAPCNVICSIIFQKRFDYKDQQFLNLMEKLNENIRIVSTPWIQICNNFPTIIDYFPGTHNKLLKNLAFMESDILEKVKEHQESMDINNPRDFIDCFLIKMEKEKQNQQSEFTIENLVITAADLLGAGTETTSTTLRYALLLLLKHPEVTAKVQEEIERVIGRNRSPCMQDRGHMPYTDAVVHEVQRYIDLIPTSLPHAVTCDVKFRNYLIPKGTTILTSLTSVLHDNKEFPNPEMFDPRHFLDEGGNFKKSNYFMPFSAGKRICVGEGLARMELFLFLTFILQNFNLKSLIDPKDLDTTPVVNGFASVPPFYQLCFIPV", "assay": "Time-dependant inhibition of CYP2C19 in human liver microsomes", "format": "ADME"}, "[17]": {"target": "Sodium channel protein type 9 subunit alpha (Mus musculus, UniProt Q62205)", "assay": "Inhibition of Nav1.7 in mouse DRG neurons at -70 mV holding potential by patch clamp electrophysiology method"}, "[18]": {"assay": "Plasma concentration in CD1 mouse model of formalin-induced nociception at 3 mg/kg, po", "format": "ADME, organism-based", "conditions": "read-out: Cp, in vivo"}, "Cytochrome P450 2C8 [19]": {"target": "T6, Cytochrome P450 2C8 (Homo sapiens, UniProt P10632)", "T6 sequence (P10632 whole entry)": "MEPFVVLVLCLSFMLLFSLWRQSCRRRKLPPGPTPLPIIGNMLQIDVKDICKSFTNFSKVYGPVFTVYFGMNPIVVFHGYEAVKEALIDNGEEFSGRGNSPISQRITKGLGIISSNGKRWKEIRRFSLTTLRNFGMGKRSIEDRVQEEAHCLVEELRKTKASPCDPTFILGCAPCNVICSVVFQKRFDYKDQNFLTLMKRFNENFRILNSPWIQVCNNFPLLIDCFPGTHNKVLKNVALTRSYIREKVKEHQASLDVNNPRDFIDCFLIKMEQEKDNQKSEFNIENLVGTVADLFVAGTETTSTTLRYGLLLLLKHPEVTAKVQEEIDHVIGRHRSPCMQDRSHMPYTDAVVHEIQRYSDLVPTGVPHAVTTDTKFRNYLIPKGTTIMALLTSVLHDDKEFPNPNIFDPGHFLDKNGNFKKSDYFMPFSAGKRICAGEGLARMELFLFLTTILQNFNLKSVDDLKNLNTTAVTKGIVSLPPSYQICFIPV", "assay": "Inhibition of CYP2C8 in human liver microsomes", "format": "ADME", "conditions": "human, microsomes"}, "[20]": {"target": "Sodium channel protein type 9 subunit alpha (Homo sapiens, UniProt Q15858)", "sequence (Q15858 whole entry)": "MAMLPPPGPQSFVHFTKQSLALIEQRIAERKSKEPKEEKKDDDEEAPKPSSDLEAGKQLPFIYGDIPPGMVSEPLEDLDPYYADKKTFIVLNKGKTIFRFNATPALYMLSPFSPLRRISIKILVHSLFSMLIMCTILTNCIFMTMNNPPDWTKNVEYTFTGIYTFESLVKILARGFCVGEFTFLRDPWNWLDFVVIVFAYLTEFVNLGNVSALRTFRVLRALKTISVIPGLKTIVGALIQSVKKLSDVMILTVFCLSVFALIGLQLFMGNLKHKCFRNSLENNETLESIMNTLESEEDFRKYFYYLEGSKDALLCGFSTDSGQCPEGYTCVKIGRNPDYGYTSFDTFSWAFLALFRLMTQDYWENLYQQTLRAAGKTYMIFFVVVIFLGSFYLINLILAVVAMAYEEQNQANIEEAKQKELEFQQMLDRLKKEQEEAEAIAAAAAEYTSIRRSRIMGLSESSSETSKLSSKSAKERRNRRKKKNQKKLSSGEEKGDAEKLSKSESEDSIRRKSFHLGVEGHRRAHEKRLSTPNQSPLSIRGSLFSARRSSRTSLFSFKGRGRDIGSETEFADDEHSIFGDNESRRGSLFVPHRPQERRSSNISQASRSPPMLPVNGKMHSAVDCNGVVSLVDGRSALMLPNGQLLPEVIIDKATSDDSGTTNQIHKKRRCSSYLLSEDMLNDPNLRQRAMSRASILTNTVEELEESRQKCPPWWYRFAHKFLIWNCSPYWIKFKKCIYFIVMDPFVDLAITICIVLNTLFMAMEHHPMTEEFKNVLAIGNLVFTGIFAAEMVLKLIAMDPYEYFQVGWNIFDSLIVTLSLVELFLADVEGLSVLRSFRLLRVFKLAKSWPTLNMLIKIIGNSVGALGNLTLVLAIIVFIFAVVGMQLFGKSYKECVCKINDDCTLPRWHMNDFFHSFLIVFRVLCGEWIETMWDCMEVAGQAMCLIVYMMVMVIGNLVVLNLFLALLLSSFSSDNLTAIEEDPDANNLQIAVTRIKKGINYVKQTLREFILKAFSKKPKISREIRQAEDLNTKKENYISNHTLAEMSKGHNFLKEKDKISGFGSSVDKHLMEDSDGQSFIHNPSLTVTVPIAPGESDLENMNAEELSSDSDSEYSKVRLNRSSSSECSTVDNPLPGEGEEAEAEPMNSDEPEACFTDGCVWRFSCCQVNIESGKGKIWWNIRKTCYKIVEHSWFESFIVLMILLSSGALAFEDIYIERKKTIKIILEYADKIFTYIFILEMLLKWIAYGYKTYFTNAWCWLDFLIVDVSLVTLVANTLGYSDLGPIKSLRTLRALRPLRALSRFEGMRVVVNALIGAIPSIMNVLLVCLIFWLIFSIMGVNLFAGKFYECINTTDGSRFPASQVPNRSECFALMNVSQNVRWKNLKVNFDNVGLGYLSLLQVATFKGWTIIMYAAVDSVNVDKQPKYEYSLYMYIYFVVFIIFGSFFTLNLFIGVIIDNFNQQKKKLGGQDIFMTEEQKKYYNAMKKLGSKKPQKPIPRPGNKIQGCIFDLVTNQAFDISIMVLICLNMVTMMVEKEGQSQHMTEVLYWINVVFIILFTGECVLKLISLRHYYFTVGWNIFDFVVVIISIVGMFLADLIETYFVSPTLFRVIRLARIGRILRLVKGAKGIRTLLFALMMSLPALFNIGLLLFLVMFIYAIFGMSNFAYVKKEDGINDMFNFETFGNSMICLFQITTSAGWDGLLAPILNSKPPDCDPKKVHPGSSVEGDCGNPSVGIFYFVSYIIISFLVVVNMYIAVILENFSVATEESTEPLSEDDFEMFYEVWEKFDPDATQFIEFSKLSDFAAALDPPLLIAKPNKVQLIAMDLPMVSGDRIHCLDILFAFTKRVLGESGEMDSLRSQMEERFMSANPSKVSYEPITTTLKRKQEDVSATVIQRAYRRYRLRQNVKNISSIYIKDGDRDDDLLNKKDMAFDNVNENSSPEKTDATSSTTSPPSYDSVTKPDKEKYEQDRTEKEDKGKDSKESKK", "assay": "Inhibition of recombinant human Nav1.7 expressed in HEK293 cells at -70 mV holding potential by patch clamp electrophysiology method", "format": "cell-based"}, "Cytochrome P450 2D6 [21]": {"target": "T1, Cytochrome P450 2D6", "assay": "Inhibition of CYP2D6 in human liver microsomes", "format": "ADME", "conditions": "human, microsomes"}, "Mus musculus [22]": {"test_system": "Mus musculus", "assay": "Analgesic activity in CD1 mouse model of formalin-induced nociception assessed as reduction in formalin-evoked paw flinching/licking response during second phase at 30 mg/kg, po pretreated for 30 mins followed by formalin treatment and measured during 15 to 45 mins post formalin injection", "format": "functional, organism-based"}, "[23]": {"assay": "Metabolic stability in mouse liver microsomes assessed as parent compound remaining at 0.5 uM after 10 mins", "format": "ADME, Microsome", "conditions": "read-out: Stability"}, "Cytochrome P450 2C8 [24]": {"target": "T6, Cytochrome P450 2C8", "assay": "Time-dependant inhibition of CYP2C8 in human liver microsomes", "format": "ADME"}, "Cytochrome P450 2C19 [25]": {"target": "T5, Cytochrome P450 2C19", "assay": "Inhibition of CYP2C19 in human liver microsomes", "format": "ADME", "conditions": "human, microsomes"}, "[26]": {"assay": "Permeability of the compound at pH 7.4 by PAMPA", "format": "ADME", "conditions": "read-out: permeability"}}, "note": "Activity calls are given as the source filed them. The calls are words filed in the database; no cut-off is given here."}
{"molecule": "CC(C)COc1ncc(-c2nn(C)c3cc(C(=O)NS(C)(=O)=O)ccc23)cc1Cl", "values": [{"measurement": "TDI", "setting": "Cytochrome P450 2D6 [1]", "value": "Not Active"}, {"measurement": "Activity", "setting": "[2]", "value": "Toxic"}, {"measurement": "inhibition (INH)", "setting": "Cytochrome P450 2C9 [3]", "value": "Not Active"}, {"measurement": "inhibition (INH)", "setting": "Cytochrome P450 3A4 [4]", "value": "Not Active"}, {"measurement": "remaining at 10 min, 0.5 µM", "setting": "[5]", "value": 100, "unit": "%"}, {"measurement": "TDI", "setting": "Cytochrome P450 3A4 [6]", "value": "Not Active"}, {"measurement": "Cp(f)", "setting": "[7]", "value": 0.56, "unit": "nM"}, {"measurement": "Activity", "setting": "[8]", "value": "Toxic"}, {"measurement": "remaining at 10 min, 0.5 µM", "setting": "[9]", "value": 100, "unit": "%"}, {"measurement": "inhibition (INH)", "setting": "Cytochrome P450 2B6 [10]", "value": "Not Active"}, {"measurement": "TDI", "setting": "Cytochrome P450 2C9 [11]", "value": "Not Active"}, {"measurement": "fraction unbound", "setting": "[12]", "value": 0.002}, {"measurement": "Activity", "setting": "Mus musculus [13]", "value": "inactive"}, {"measurement": "TDI", "setting": "Cytochrome P450 2B6 [14]", "value": "Not Active"}, {"measurement": "Papp", "setting": "[15]", "value": 116, "unit": "×10⁻⁶ cm/s"}, {"measurement": "TDI", "setting": "Cytochrome P450 2C19 [16]", "value": "Not Active"}, {"measurement": "IC50", "setting": "[17]", "value": 12, "unit": "nM"}, {"measurement": "concentration", "setting": "[18]", "value": 280, "unit": "nM"}, {"measurement": "inhibition (INH)", "setting": "Cytochrome P450 2C8 [19]", "value": "Not Active"}, {"measurement": "IC50", "setting": "[20]", "value": 11, "unit": "nM"}, {"measurement": "inhibition (INH)", "setting": "Cytochrome P450 2D6 [21]", "value": "Not Active"}, {"measurement": "Activity", "setting": "Mus musculus [22]", "value": "inactive"}, {"measurement": "remaining at 10 min, 0.5 µM", "setting": "[23]", "value": 100, "unit": "%"}, {"measurement": "TDI", "setting": "Cytochrome P450 2C8 [24]", "value": "Not Active"}, {"measurement": "inhibition (INH)", "setting": "Cytochrome P450 2C19 [25]", "value": "Not Active"}, {"measurement": "Papp", "setting": "[26]", "value": 41.7, "unit": "×10⁻⁶ cm/s"}]}
